According to ChEMBL document CHEMBL5390302, “Novel PARP7 Inhibitors for Treating Cancer” (ACS Med Chem Lett, 2023):

target: T1, Protein mono-ADP-ribosyltransferase TIPARP (Homo sapiens, UniProt Q7Z3E1); assay: Displacement of biotinylated RBN011147 probe from PARP7 (unknown origin) preincubated for 1 hr followed by incubation with probe for 1.5 hrs by MSD electrochemiluminescent assay
T1 sequence (Q7Z3E1 whole entry): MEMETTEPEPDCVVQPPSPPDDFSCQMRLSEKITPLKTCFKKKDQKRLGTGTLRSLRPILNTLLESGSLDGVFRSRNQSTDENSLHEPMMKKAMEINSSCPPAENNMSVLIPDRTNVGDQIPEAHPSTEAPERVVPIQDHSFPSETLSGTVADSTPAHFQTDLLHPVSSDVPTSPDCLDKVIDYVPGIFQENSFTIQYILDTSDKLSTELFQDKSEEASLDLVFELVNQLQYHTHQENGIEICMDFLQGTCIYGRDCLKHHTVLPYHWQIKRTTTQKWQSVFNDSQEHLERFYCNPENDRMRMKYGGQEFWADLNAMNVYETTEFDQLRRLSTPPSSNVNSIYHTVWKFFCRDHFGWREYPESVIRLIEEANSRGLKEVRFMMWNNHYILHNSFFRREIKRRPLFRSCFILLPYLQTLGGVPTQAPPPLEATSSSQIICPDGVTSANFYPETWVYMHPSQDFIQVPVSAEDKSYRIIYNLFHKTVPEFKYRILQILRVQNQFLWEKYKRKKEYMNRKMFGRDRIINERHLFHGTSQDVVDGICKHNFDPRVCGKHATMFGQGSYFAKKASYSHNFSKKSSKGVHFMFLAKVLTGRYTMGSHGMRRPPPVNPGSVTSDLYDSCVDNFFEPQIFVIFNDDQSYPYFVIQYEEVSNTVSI

IC50 [nM]	SMILES
0.188	C[C@@H](CCCn1ccc2cc(-c3ncc(Cl)c(N)n3)c(F)cc2c1=O)Nc1cn[nH]c(=O)c1C(F)(F)F
0.188	C[C@@H](CCCn1ccc2cc(-c3ncc(C(F)(F)F)c(N4CC(C#N)C4)n3)c(F)cc2c1=O)Nc1cn[nH]c(=O)c1C(F)(F)F
0.185	C[C@@H](CCCn1ccc2cc(-c3ncc(C(F)(F)F)c(N4C[C@@H](O)[C@@H]4C)n3)c(F)cc2c1=O)Nc1cn[nH]c(=O)c1C(F)(F)F
